From patent US4383113A, “Agricultural sulfonamides” (E. I. Du Pont de Nemours and Company, priority 1981, dated 1983) come the findings set out here.

Holding throughout (set-up): key: 0 = no effect, 10 = maximum effect; letter = response symbol
Assay [1] deals with soybean. As to the kind of experiment: Test A pre-emergence. In kind it is in vivo. Conditions: 0.4 kg/ha. An excerpt:
(§1) The activity of these compounds was discovered in a number of greenhouse and field tests. The ratings are based on a numerical scale extending from 0=no effect, to 10=maximum effect. The accompanying descriptive symbols have the following meanings:
(§2) Seeds of crabgrass (Digitaria spp.), barnyardgrass (Echinochloa crusgalli), wild oats (Avena fatua), cassia (Cassia tora), morningglory (Ipomoea spp.), cocklebur (Xanthium spp.), sorghum, corn, soybean, rice, wheat and nutsedge tubers (Cyperus rotundus) were planted in a growth medium and treated preemergence with a nonphytotoxic solvent solution of the compounds of Table XII. Other batches of seeds and tubers for all of the foregoing weed and crop plants were planted at the same time as controls. The control plantings were untreated; i.e., neither any compound nor any solvent was applied. At the same time, cotton having five leaves (including cotyledonary ones), bush beans with the third trifoliate leaf expanding, crabgrass with two leaves, barnyardgrass with two leaves, wild oats with two leaves, cassia with three leaves (including cotyledonary ones), morningglory with four leaves (including the cotyledonary ones), cocklebur with four leaves (including the cotyledonary ones), sorghum with four leaves, corn with four leaves, soybean with two cotyledonary leaves, rice with three leaves, wheat with one leaf, and nutsedge with three-five leaves were sprayed with a nonphytotoxic solvent solution of the compounds of Table XII. Other groups of all the same weed and crop plants were sprayed with the same nonphytotoxic solvent so as to provide control plants. Preemergence and postemergence treated plants and controls were maintained in a greenhouse for sixteen days, then all treated plants were compared with their respective controls and rated visually for response to treatment.

Assay [2] relates to corn. As to the kind of experiment: Test A pre-emergence. In kind it is in vivo.
From the text: as §1, §2

Assay [3] has as its system sorghum. Kind of assay: Test A pre-emergence. Conditions: 0.4 kg/ha. In kind it is in vivo.
From the text: as §1, §2

Assay [4] relates to morningglory. As to the kind of experiment: Test A pre-emergence. In kind it is in vivo, Ipomoea spp. As to conditions: 0.4 kg/ha.
From the text: as §1, §2

The test system of assay [5] is barnyardgrass. Kind of assay: Test A pre-emergence. It counts as in vivo, Echinochloa crusgalli. As to conditions: 0.4 kg/ha.
From the text: as §1, §2

The subject of assay [6] is cassia. As to the kind of experiment: Test A pre-emergence. It counts as in vivo, Cassia tora. As to conditions: 0.4 kg/ha.
From the text: as §1, §2

The test system of assay [7] is cocklebur. As to the kind of experiment: Test A pre-emergence. In kind it is in vivo, Xanthium spp. Conditions: 0.4 kg/ha.
From the text: as §1, §2

The test system of assay [8] is wheat. As to the kind of experiment: Test A pre-emergence. In kind it is in vivo. Conditions: 0.4 kg/ha.
From the text: as §1, §2

In assay [9] the test system is nutsedge. Kind of assay: Test A post-emergence. In kind it is in vivo, Cyperus rotundus. As to conditions: 0.4 kg/ha.
From the text: as §1, §2

Assay [10] has as its system wild oats. Kind of assay: Test A post-emergence. In kind it is in vivo, Avena fatua. Conditions: 0.4 kg/ha.
From the text: as §1, §2

The test system of assay [11] is soybean. Kind of assay: Test A post-emergence. In kind it is in vivo. Conditions: 0.4 kg/ha.
From the text: as §1, §2

For assay [12], the system named is wheat. As to the kind of experiment: Test A post-emergence. It counts as in vivo. Conditions: 0.4 kg/ha.
From the text: as §1, §2

Assay [13] concerns corn. Kind of assay: Test A post-emergence. In kind it is in vivo. As to conditions: 0.4 kg/ha.
From the text: as §1, §2

Assay [14] relates to crabgrass. Kind of assay: Test A post-emergence. Conditions: 0.4 kg/ha. In kind it is in vivo, Digitaria spp.
From the text: as §1, §2

In assay [15] the test system is barnyardgrass. Kind of assay: Test A post-emergence. It counts as in vivo, Echinochloa crusgalli. Conditions: 0.4 kg/ha.
From the text: as §1, §2

In assay [16] the test system is morningglory. As to the kind of experiment: Test A post-emergence. As to conditions: 0.4 kg/ha. In kind it is in vivo, Ipomoea spp.
From the text: as §1, §2

For assay [17], the system named is bush bean. As to the kind of experiment: Test A post-emergence. In kind it is in vivo, bush beans. Conditions: 0.4 kg/ha.
Assay [18] has as its system sorghum. Kind of assay: Test A post-emergence. In kind it is in vivo. Conditions: 0.4 kg/ha.
From the text: as §1, §2

The subject of assay [19] is cassia. Kind of assay: Test A post-emergence. It counts as in vivo, Cassia tora. Conditions: 0.4 kg/ha.
From the text: as §1, §2

For assay [20], the system named is cocklebur. Kind of assay: Test A post-emergence. It counts as in vivo, Xanthium spp. Conditions: 0.4 kg/ha.
From the text: as §1, §2

Consider `COC(=O)c1ccccc1S(=O)(=O)NC(=O)Nc1nc(OC)cc(OC(C)C(=O)OC)n1` (centres unmarked) [drawing 535], for which the response rating in [1] was 9H; in assay [2] (0.4 kg/ha) it was 10H; in assay [3] it was 10H.
`COc1cc(C)nc(NC(=O)NS(=O)(=O)c2ccccc2C(=O)N(C)C)n1` [drawing 532]: the response rating in [4] turned out to be 9G; in assay [5], 9H; in [6], 9G; in assay [7], 9G; in [1] it was 9H; in assay [8], 9H. The response rating in assay [2] (0.4 kg/ha) and in [3] was 9H throughout.
As for `COc1cc(C)nc(NC(=O)NS(=O)(=O)c2ccccc2C(=O)OC(C)CCl)n1` (centres unmarked) [drawing 545], the response rating turned out to be 9G in assay [4]; 9G in assay [6]; 9G in assay [7]; 9H in assay [1]; 9H in assay [8]; 9H in [2] (0.4 kg/ha).
Regarding `COC(=O)c1ccccc1S(=O)(=O)NC(=O)Nc1nc(C)nc(N(C)C)n1` [drawing 539], the response rating in assay [4] is reported as 9G; in assay [6], 8G; in assay [7], 9G; in assay [1], 9H; in assay [8] it was 9H; in assay [2] (0.4 kg/ha), 9G. Further, the response rating in assay [3] worked out at 9H.
For the compound `CCOCCSc1cc(C)nc(NC(=O)NS(=O)(=O)c2ccccc2C(=O)OC)n1` [drawing 536], the response rating amounted to 9G in assay [4], 9H in assay [1], 9G in assay [2] (0.4 kg/ha) and 9H in assay [3].
Consider `COc1cc(C)nc(NC(=O)NS(=O)(=O)c2ccccc2C(=O)OCCOc2ccccc2)n1` [drawing 528], for which the response rating in assay [4] is given as 9C; in assay [7], 9G; in assay [1] it was 9H; in assay [8], 9H; in assay [2] (0.4 kg/ha) it was 9G.
`CCC(C)OC(=O)c1ccccc1S(=O)(=O)NC(=O)Nc1nc(OC)cc(OC)n1` (centres unmarked) [drawing 423]: the response rating worked out at 7G in [9]; 2C in [10]; 9C in [11]; 1C in [12]; 9H in assay [13]; 2A in [14]. Further, the response rating in assay [15] and in assay [16] was 9C in each case.
On to `COCCc1nc(NC(=O)NS(=O)(=O)c2ccccc2C(=O)OC)nc(OC)n1` [drawing 541], for which the response rating in assay [4] stood at 9G; in [7] it was 9G; in assay [1], 9H; in assay [8] it was 6G; in assay [2] (0.4 kg/ha), 10H; in assay [3] it was 9H.
Take `COc1cc(C)nc(NC(=O)NS(=O)(=O)c2ccccc2C(=O)OC2CCOC2)n1` (centres unmarked) [drawing 446]: the response rating turned out to be 7G in [10]; 9C in [17]; 9C in [11]; 7C in [12]; 9C in assay [18]; 9C in assay [15]. In assay [16], the response rating turned out to be 9C.
For the compound `COC(=O)c1ccccc1S(=O)(=O)NC(=O)N(C)c1nc(C)cc(C)n1` [drawing 419], the response rating in [9] came out at 7G; in [10], 6C; in assay [19], 2C; in assay [11] it was 3C; in assay [14], 7G; in assay [15], 9C.
As for `COc1cc(C)nc(NC(=O)NS(=O)(=O)c2ccccc2C(=O)OCCCl)n1` [drawing 488], the response rating is 9C in [4]; 10H in assay [5]; 9C in assay [6]; 9G in assay [7]; 9H in assay [1]; 9H in assay [8]. Also, the response rating in [2] (0.4 kg/ha) and in [3] was 10H in each case.
As for `CCCC(OC(=O)c1ccccc1S(=O)(=O)NC(=O)Nc1nc(C)nc(OC)n1)C(C)C` (centres unmarked) [drawing 458], the response rating in assay [17] was 9C; in assay [19], 9C; in assay [11] it was 9C; in assay [13], 9C; in [20], 10C; in assay [14], 3C. For the same compound, the response rating stood at 9C in assay [15] and 10C in assay [16].
With `COc1cc(C)nc(NC(=O)NS(=O)(=O)c2ccccc2C(=O)SC2CCCCC2)n1` [drawing 543], the response rating came to 9H in assay [4]; 9H in assay [5]; 9G in assay [6]; 9G in [7]; 9H in assay [1]; 9H in assay [8]. In addition, the results for the response rating in assay [2] (0.4 kg/ha) and in [3] were 9G and 9H, respectively.
Consider `COCCCOc1cc(C)nc(NC(=O)NS(=O)(=O)c2ccccc2C(=O)OC)n1` [drawing 537], for which the response rating in [6] was 8G; in [7], 9G; in assay [1], 9H; in assay [8], 9H; in [2] (0.4 kg/ha), 9H; in [3] it was 9H.
In turn, `Cc1cc(C)nc(NC(=O)NS(=O)(=O)c2ccccc2C(=O)O)n1` [drawing 510] displayed a response rating in [2] (2 kg/ha) of 3G.
Turning to `COc1cc(C)nc(NC(=O)NS(=O)(=O)c2ccccc2C(=O)NC(C)C)n1` [drawing 463], the response rating in assay [9], in assay [10], in assay [19], in assay [11], in assay [18] and in assay [20] was 9C each time. The response rating in assay [14] is 10C; in assay [15], 9C; in [16] it was 10C.
On to `COc1cc(C)nc(NC(=O)NS(=O)(=O)c2ccccc2C(=O)SCc2ccccc2)n1` [drawing 542], for which the response rating in assay [4] is on record as 9G; in assay [6] it was 9G; in assay [7] it was 8G; in [1], 9H; in [8], 9H; in assay [2] (0.4 kg/ha) it was 9G. The response rating in assay [3] was found to be 9H.
Take `COc1nc(C)nc(NC(=O)NS(=O)(=O)c2ccccc2C(=O)OC2CCCC2)n1` [drawing 445]: the response rating in assay [9] amounted to 7G; in assay [10] it was 1C; in assay [17], 8C; in assay [11], 9C; in [12], 1C; in assay [18], 8G. The response rating is 9C in assay [20], 1C in assay [14] and 10C in assay [16].
